Assay results from US20130023585A1, “Neuraminidase Inhibitors” (TSRL, INC., priority 2010, published 2013).
Where two headings read alike, the source gives them in different places. Marks after values point to notes of the source that are not given here.

Legend:
[1] = mouse, in vivo, 10 mg/kg/day
[2] = tested on: Influenza A/NWS/33 (H1N1); assay type: in vivo, BALB/c mice; settings: for Survivors/Total: twice a day for 5 days, observed 21 days
[3] = cited from earlier work
[4] = for Plasma concentration of Zanamivir: iv dose 1 mg/kg
Victoria/3/75 (H3N2) = experiment: microbe, parasite or virus in culture; assay type: cell-based; settings: Influenza A virus, read-out: 50% effective concentration (EC50)
NWS/33 (H1N1) = experiment: microbe, parasite or virus in culture; assay type: cell-based; settings: Influenza A virus, read-out: 50% effective concentration (EC50)
Brisbane/59/2007 (H1N1) = experiment: microbe, parasite or virus in culture; assay type: cell-based; settings: Influenza A virus, read-out: 50% effective concentration (EC50)
[5] = tested on: Flu A Duck/MN/1525/81 (H5N1); experiment: microbe, parasite or virus in culture; assay type: cell-based; settings: Influenza A virus, H5N1, MDCK, read-out: 50% effective concentration (EC50)
Sichuan/379/99 = experiment: microbe, parasite or virus in culture; assay type: cell-based; settings: unidentified influenza virus, read-out: 50% effective concentration (EC50)
[6] = tested on: Solomon Islands/03/2006 (H1N1); experiment: microbe, parasite or virus in culture; assay type: cell-based; settings: Influenza A virus, read-out: 50% effective concentration (EC50)
[7] = tested on: Flu A Vietnam/1203/2004 (H5N1) × A/Ann Arbor/6/60 (H1N1 core genes); experiment: microbe, parasite or virus in culture; assay type: cell-based; settings: Influenza A virus, MDCK, read-out: 50% effective concentration (EC50)
[8] = tested on: California/04/2009 (H1N1); experiment: microbe, parasite or virus in culture; assay type: cell-based; settings: Influenza A virus, read-out: 50% effective concentration (EC50)
Flu B Florida/4/2006 = experiment: microbe, parasite or virus in culture; assay type: cell-based; settings: unidentified influenza virus, read-out: 50% effective concentration (EC50)
Brisbane/10/2007 (H3N2) = experiment: microbe, parasite or virus in culture; assay type: cell-based; settings: Influenza A virus, read-out: 50% effective concentration (EC50)
influenza virus = settings: versus oseltamivir carboxylate; cited from earlier work
in vivo = settings: mouse

SMILES: CCC(CC)OC1C=C(C(=O)OC(OC(=O)C(N)C(C)C)c2ccccc2)CC(NC(=N)N)C1NC(C)=O (mixture of isomers) [GOC-Benzyl-Val]
- AUC (mouse, in vivo, iv, 1 mg/kg): 867 ± 110 ng·h/mL
- CL (mouse, in vivo, iv, 1 mg/kg): 31 mL/h
- T1/2 (mouse, in vivo, iv, 1 mg/kg): 1.15 h
- Vz (mouse, in vivo, iv, 1 mg/kg): 50.8 mL
- AUC (mouse, in vivo, po, 10 mg/kg): 1171 ± 357 ng·h/mL
- CL (mouse, in vivo, po, 10 mg/kg): 195 mL/h
- Cmax (mouse, in vivo, po, 10 mg/kg): 192 ± 48 ng/mL
- T1/2 (mouse, in vivo, po, 10 mg/kg): 7.14 h
- Tmax (mouse, in vivo, po, 10 mg/kg): 1.0 ± 0.0 h
- Vz (mouse, in vivo, po, 10 mg/kg): 2014 mL

SMILES: CCOC(=O)C1=C[C@@H](OC(CC)CC)[C@H](NC(C)=O)[C@@H](N)C1 [Oseltamivir]
- Survivors/Total ([1]; BALB/c): 5/5
- Mean Weight Change Day 5 [1]: −0.3 grams
- Mean Weight Change Day 5, % of initial body weight (in parenthesis) [1]: −1.6%
- Mean Weight Change, day 7 [1]: −0.1 grams
- Mean Weight Change, day 7, % of initial body weight (in parenthesis) [1]: −0.5%
- MDD ± SD (mean day of death of mice that died prior to day 21) ([2]; 0.1 mg/kg/day): 9.7 ± 1.6
- protective from the lethal infection ([2]; 0.1 mg/kg/day): ineffective
- Survivors/Total ([2]; 0.1 mg/kg/day per oral): 0/10
- protective from the lethal infection ([2]; 1 mg/kg/day): 100%
- weight loss during the infection (FIG. 2) ([2]; 1 mg/kg/day): lost minimal weight
- Survivors/Total ([2]; 1 mg/kg/day per oral): 10/10**
- protective from the lethal infection ([2]; 10 mg/kg/day): 100%
- Survivors/Total ([2]; 10 mg/kg/day per oral): 10/10**

SMILES: CC(=O)N[C@H]1[C@H]([C@H](O)[C@H](O)CO)OC(C(=O)O)=C[C@@H]1N=C(N)N [Zanamivir]
- oral bioavailability ([3]; in vivo, po): about 2%
- Plasma concentration of Zanamivir ([4]; 0.03 hours): 4018.3 ng/mL
- Plasma concentration of Zanamivir ([4]; 0.08 hours): 2487.5 ng/mL
- Plasma concentration of Zanamivir ([4]; 0.25 hours): 633.8 ng/mL
- Plasma concentration of Zanamivir ([4]; 0.50 hours): 212.0 ng/mL
- Plasma concentration of Zanamivir ([4]; 1.00 hours): 78.6 ng/mL
- Plasma concentration of Zanamivir ([4]; 2.00 hours): 14.0 ng/mL
- AUC ([4]; mouse, in vivo, iv, 1 mg/kg): 202.4 (ng/ml) × hr

SMILES: CCOC(=O)C1=C[C@@H](OC(CC)CC)[C@H](NC(C)=O)[C@@H](NC(=N)N)C1
- oral bioavailability ([3]; oral): approximately 2%

SMILES: CCC(CC)O[C@@H]1C=C(C(=O)O)C[C@H](N)[C@H]1NC(C)=O [Oseltamivir Carboxylate, Oseltamivir carboxylate]
- EC50 (Victoria/3/75 (H3N2); H3N2, MDCK): > 320 nM
- EC50 (NWS/33 (H1N1); H1N1, MDCK): 580 nM
- EC50 (Brisbane/59/2007 (H1N1); H1N1, MDCK): > 320 nM
- EC50 [5]: 150 nM
- oral bioavailability ([3]; oral): ~4.0%
- EC50 (Sichuan/379/99; MDCK): > 3200 nM
- EC50 ([6]; H1N1, MDCK): > 320 nM
- EC50 [7]: 2.8 nM
- EC50 ([8]; H1N1, MDCK): 300 nM
- EC50 (Flu B Florida/4/2006; MDCK): > 3200 nM
- EC50 (Brisbane/10/2007 (H3N2); H3N2, MDCK): > 320 nM

SMILES: CCC(CC)O[C@@H]1C=C(C(=O)O)C[C@H](NC(=N)N)[C@H]1NC(C)=O [GOC, 4-guanidinio oseltamivir carboxylate]
- EC50 (Victoria/3/75 (H3N2); H3N2, MDCK cells, 3 to 4 days): 38 nM
- EC50 (NWS/33 (H1N1); H1N1, MDCK cells, 3 to 4 days): < 32 nM
- EC50 (Brisbane/59/2007 (H1N1); H1N1, MDCK cells, 3 to 4 days): 4 nM
- EC50 [5]: 1.2 nM
- AUC (mouse, in vivo, po, 10 mg/kg): 327 ± 98 ng·h/mL
- Cmax (mouse, in vivo, po, 10 mg/kg): 73 ± 30 ng/mL
- T1/2 (mouse, in vivo, po, 10 mg/kg): 1.65 h
- oral bioavailability ([3]; oral): ~4.0%
- EC50 (Sichuan/379/99; MDCK cells, 3 to 4 days): > 3200 nM
- Mean Weight Change Day 5 [1]: −0.3 grams
- Mean Weight Change Day 5, % of initial body weight (in parenthesis) [1]: −2.1%
- Mean Weight Change, day 7 [1]: −0.2 grams
- Mean Weight Change, day 7, % of initial body weight (in parenthesis) [1]: −1.0%
- EC50 ([6]; H1N1, MDCK cells, 3 to 4 days): 4.2 nM
- EC50 [7]: 0.28 nM
- times more potent in tissue culture of influenza virus replication (influenza virus): 10 times
- EC50 ([8]; H1N1, MDCK cells, 3 to 4 days): 16 nM
- EC50 (Flu B Florida/4/2006; MDCK cells, 3 to 4 days): 460 nM
- bioavailability (in vivo; 10 mg/kg, BA (bioavailability of GOC)): 4.3%
- Vd (in vivo; iv, 1 mg/kg): 0.0678 L
- clearance (in vivo; iv, 1 mg/kg): 0.883 mL/min
- AUC (in vivo; iv, 1 mg/kg, mice, GOC in plasma): 541 ± 229 ng·h/mL
- half-life (in vivo; iv, 1 mg/kg, T1/2, mice): 0.88 h
- AUC (in vivo; po, 10 mg/kg): 232 ± 43 ng·h/mL
- Cmax (in vivo; po, 10 mg/kg, Cmax): 43 ± 29 ng/mL
- half-life (in vivo; po, 10 mg/kg, T1/2): 1.21 h
- Tmax (in vivo; po, 10 mg/kg): 3 ± 1.2 h
- Tmax (in vivo; po, 10 mg/kg, mice, PO (fasted), GOC in plasma): 1.3 ± 1 h
- EC50 (Brisbane/10/2007 (H3N2); H3N2, MDCK cells, 3 to 4 days): > 320 nM
- MDD ± SD (mean day of death of mice that died prior to day 21) ([2]; 0.1 mg/kg/day): 9.0 ± 1.0
- protective from the lethal infection ([2]; 0.1 mg/kg/day): not active
- Survivors/Total ([2]; 0.1 mg/kg/day per oral): 0/10
- MDD ± SD (mean day of death of mice that died prior to day 21) ([2]; 1 mg/kg/day): 9.8 ± 1.2
- protective from the lethal infection ([2]; 1 mg/kg/day): not active
- Survivors/Total ([2]; 1 mg/kg/day per oral): 1/10
- protective from the lethal infection ([2]; 10 mg/kg/day): 100%
- weight loss during the infection (FIG. 2) ([2]; 10 mg/kg/day): Some weight loss
- Survivors/Total ([2]; 10 mg/kg/day per oral): 10/10**

SMILES: CCC(CC)OC1C=C(C(=O)OC(C)OC(=O)C(N)C(C)C)CC(NC(=N)N)C1NC(C)=O (mixture of isomers) [GOC-Me-Val]
- T1/2 (mice, IV, 1 mg/kg): 1.05 h
- AUC (mouse, in vivo, iv, 1 mg/kg): 730 ± 60 ng·h/mL
- CL (mouse, in vivo, iv, 1 mg/kg): 39 mL/h
- Vz (mouse, in vivo, iv, 1 mg/kg): 59.5 mL
- AUC (mouse, in vivo, po, 10 mg/kg): 3205 ± 577 ng·h/mL
- CL (mouse, in vivo, po, 10 mg/kg): 140 mL/h
- Cmax (mouse, in vivo, po, 10 mg/kg): 561 ± 235 ng/mL
- Vz (mouse, in vivo, po, 10 mg/kg): 276 mL
- Mean Weight Change Day 5 [1]: −0.2 grams
- Mean Weight Change Day 5, % of initial body weight (in parenthesis) [1]: −0.5%
- Mean Weight Change, day 7 [1]: −0.3 grams
- Mean Weight Change, day 7, % of initial body weight (in parenthesis) [1]: −1.6%
- Survivors/Total [1]: 5/5
- MDD ± SD (mean day of death of mice that died prior to day 21) ([2]; 0.1 mg/kg/day): 10.0 ± 1.3
- protective from the lethal infection ([2]; 0.1 mg/kg/day): inactive
- Survivors/Total ([2]; 0.1 mg/kg/day per oral): 0/10
- MDD ± SD (mean day of death of mice that died prior to day 21) ([2]; 1 mg/kg/day): 10.7 ± 0.6
- protective from the lethal infection ([2]; 1 mg/kg/day): 70%
- weight loss during the infection (FIG. 2) ([2]; 1 mg/kg/day): Severe weight loss
- Survivors/Total ([2]; 1 mg/kg/day per oral): 7/10**
- protective from the lethal infection ([2]; 10 mg/kg/day): 100%
- Survivors/Total ([2]; 10 mg/kg/day per oral): 10/10**

SMILES: CC(=O)N[C@H]1[C@H]([C@H](O)[C@H](O)CO)OC(C(=O)OC(OC(=O)[C@H](N)C(C)C)C(C)C)=C[C@@H]1NC(=N)N (stereo partly drawn) [ZAN-Isp-Val]
- AUC ([4]; Oral, fasted mice, Zanamivir in plasma): 2177 (ng/ml) × hr
- absorption after oral dosing ([4]; fasted animals): completely absorbed
